In ChEMBL document CHEMBL1142182, “Novel Ambler class A beta-lactamase LAP-1 and its association with the plasmid-mediated quinolone resistance determinant QnrS1” (Antimicrob Agents Chemother, 2007):
In brackets after ≈: the same amount, converted by molar mass.

What was measured:
Escherichia coli [1] = test: Antibacterial activity against Escherichia coli DH10B expressing recombinant beta lactamase LAP1; format: functional
Escherichia coli [2] = test: Antibacterial activity against Escherichia coli DH10B; format: functional
Enterobacter cloacae [3] = tested on: Enterobacter cloacae
Description: Ratio of kcat to Km of Enterobacter cloacae S3 isolate beta lactamase LAP1 expressed in Escherichia coli DH10B

Enterobacter cloacae [4] = test: Antibacterial activity against Enterobacter cloacae S3 isolate by agar dilution technique; format: functional
Enterobacter cloacae [5] = tested on: Enterobacter cloacae; remark: listed apart in the source
Description: Activity of Enterobacter cloacae S3 isolate beta lactamase LAP1 expressed in Escherichia coli DH10B

[6] = Inhibition of Enterobacter cloacae S3 isolate beta lactamase LAP1 expressed in Escherichia coli DH10B

| IC50 [6] [nM] | Compound | MIC (Escherichia coli [1]) [µg/mL] | MIC (Escherichia coli [2]) [µg/mL] | kcat/Km (Enterobacter cloacae [3]) [M⁻¹ s⁻¹] | MIC (Enterobacter cloacae [4]) [µg/mL] | Km (Enterobacter cloacae [5]) [µM] |
| --- | --- | --- | --- | --- | --- | --- |
|  | CO/N=C(\C(=O)N[C@@H]1C(=O)N2C(C(=O)[O-])=C(C[N+]3(C)CCCC3)CS[C@H]12)c1csc(N)n1 | 0.12 |  |  |  |  |
|  | CC1(C)S[C@@H]2[C@H](NC(=O)[C@H](N)c3ccc(O)cc3)C(=O)N2[C@H]1C(=O)O [AMOXICILLIN] | 512 | 4 (≈ 10.9 µM) | 3.3e+06 | > 512 | 180 |
|  | CO/N=C(\C(=O)N[C@@H]1C(=O)N2C(C(=O)O)=C(COC(C)=O)CS[C@H]12)c1csc(N)n1 [CEFOTAXIME] | 0.12 | 0.12 (≈ 0.263 µM) |  | 0.25 (≈ 0.549 µM) |  |
|  | CO[C@@]1(NC(=O)Cc2cccs2)C(=O)N2C(C(=O)O)=C(COC(N)=O)CS[C@@H]21 [CEFOXITIN] | 4 | 4 (≈ 9.36 µM) |  | 256 (≈ 599 µM) |  |
|  | CC(C)(O/N=C(\C(=O)N[C@@H]1C(=O)N2C(C(=O)[O-])=C(C[n+]3ccccc3)CS[C@H]12)c1csc(N)n1)C(=O)O [CEFTAZIDIME] | 0.12 | 0.06 (≈ 0.11 µM) |  | 0.5 (≈ 0.915 µM) |  |
|  | CO/N=C(\C(=O)N[C@@H]1C(=O)N2C(C(=O)O)=C(COC(N)=O)CS[C@H]12)c1ccco1 [CEFUROXIME] | 8 | 2 (≈ 4.71 µM) | > 50000 | 256 (≈ 603 µM) | > 2000 |
|  | CC(=O)OCC1=C(C(=O)O)N2C(=O)[C@@H](NC(=O)Cc3cccs3)[C@H]2SC1 [CEPHALOTHIN] | 16 | 4 (≈ 10.1 µM) | 90000 | > 512 | 400 |
|  | C[C@@H](O)[C@H]1C(=O)N2C(C(=O)O)=C(SCCNC=N)C[C@H]12 [IMIPENEM ANHYDROUS] |  |  |  | 0.12 (≈ 0.401 µM) |  |
| 80 | CC1(C)S[C@@H]2[C@H](NC(=O)Cc3ccccc3)C(=O)N2[C@H]1C(=O)O [PENICILLIN G] |  |  | 1e+07 |  | 20 |
|  | CCN1CCN(C(=O)N[C@@H](C(=O)N[C@@H]2C(=O)N3[C@@H]2SC(C)(C)[C@@H]3C(=O)O)c2ccccc2)C(=O)C1=O [PIPERACILLIN] | 4 | 1 (≈ 1.93 µM) | 1.5e+06 | 16 (≈ 30.9 µM) | 50 |
|  | CC1(C)S[C@@H]2[C@H](NC(=O)[C@H](C(=O)O)c3ccsc3)C(=O)N2[C@H]1C(=O)O [TICARCILLIN] | 512 | 4 (≈ 10.4 µM) |  | > 512 |  |
